According to ChEMBL document CHEMBL4251586, “Design, synthesis and evaluation of an anthraquinone derivative conjugated to myelin basic protein immunodominant (MBP85-99) epitope: Towards selective immunosuppression” (Eur J Med Chem, 2018):

How the values were obtained:
Jurkat = experiment: Induction of apoptosis in human Jurkat T cells assessed as downregulation of Bcl2 expression at 10 uM after 48 hrs by Western blot analysis; assay type: functional
HEK293 = experiment: Cytotoxicity against HEK293 cells after 48 hrs by MTT assay; assay type: cell-based, Homo sapiens
[1] = Drug internalization in HEK293 cells at 10 uM after 30 to 60 mins by inverted fluorescence microscopy; assay type: ADME, cell-based; settings: human, hek293, 10 µM

Row | Drug uptake [1] | SMILES | Activity (Jurkat) [%] | IC50 (HEK293; Homo sapiens, HEK293, 48 h) [µM] | Activity (HEK293; human, hek293, 48 h)
1 | – | O=C(CS)NCCCCNc1ccc(O)c2c1C(=O)c1ccccc1C2=O | 40 | – | –
2 | Active | NCCCCNc1ccc(O)c2c1C(=O)c1ccccc1C2=O.O=C(O)C(F)(F)F | – | 9.4 | Dose-dependent effect
3 | – | O=C1c2c(O)ccc(O)c2C(=O)c2c(NCCNCCO)ccc(NCCNCCO)c21 [MITOXANTRONE] | 50 | – | –
